What was measured:
GFP-MreB = biological target: T1, GFP-MreB (Caulobacter vibrioides, UniProt A0A0H3C7V4, T167A); assay: GFP-MreB localization; assay type: cell-based, Caulobacter crescentus; conditions: 10 μg/ml; A22-resistant strain
T1 construct: expressed in transfected cells; host or cells: Caulobacter crescentus CB15N derivative, xylose-inducible Pxyl:gfp-mreB
Experimental: A22 Rapidly and Reversibly Delocalizes GFP-MreB. During the Caulobacter cell cycle, MreB forms a lengthwise spiral in swarmer cells and stalked cells. It then appears to condense into an increasingly tight ring positioned at the future site of cell division. When cytokinesis initiates, this ring is replaced by a lengthwise spiral, such that upon cell division each daughter cell inherits a fully expanded spiral. […] Since 10 μg/ml of A22 strongly delocalizes GFP-MreB and blocks cell division without completely inhibiting cell growth, we have chosen to focus most of our subsequent A22 studies on this concentration.
The onset of A22's effect on GFP-MreB is very rapid: within 1 min the GFP-MreB already delocalized (FIG. 4B). A22's effect on GFP-MreB is also rapidly reversible. Diluting the A22 concentration of cells treated with A22 for 1 hr by mounting them on pads lacking A22 leads to a full recovery of MreB localization within 1 min (FIG. 4C). GFP-MreB was monitored in the same cells before, during, and after A22 treatment by timelapse imaging cells in a flow chamber that allows A22 to be washed in and out (FIGS. 4D-4F). […] Cells generally retained a memory of the MreB structure present before A22 treatment (FIGS. […]). Cells with rings recovered rings, cells with spirals recovered spirals, and cells with partially compacted rings recovered partially compacted rings. These findings are consistent with MreB's localization being determined by extrinsic factors regulated by the cell cycle state, rather than an intrinsic MreB localization cycle.
We constructed a fusion of the most common A22-resistant mreB missense mutation (T158A) to GFP and asked if the cellular organization of this MreB mutant is maintained in 10 μg/ml of A22. This fusion was expressed in the corresponding A22-resistant strain, producing merodiploid cells containing both GFP-tagged and -untagged mutated mreB, but no wild-type mreB. […] Since this mutation in the MreB ATP binding pocket perturbs MreB dynamic localization, nucleotide hydrolysis may play a role in regulating MreB dynamics.
Microscopy and Timelapse Imaging. All experiments other than the A22 flow-cell analysis were performed by mounting the samples on 1% agarose pads as described, with the appropriate concentration of A22 added to the agarose. The rates of origin-distal locus segregation were determined by inducing PxyI:lacI:cfp expression with 0.03% xylose for 75 min, isolating swarmer cells, and growing the swarmer cells in M2G liquid medium for 50 min. After 50 min, 10 μg/ml of A22 was added to these liquid cultures, they were mounted onto 1% M2G agarose pads containing 10 μg/ml A22, and a phase and CFP fluorescence image was captured every 2 min for 60 min. The images were analyzed by previously described software to determine the average position and rate of movement of the observed foci.
The A22 flow-cell treatment timelapse images were performed on PxyI:gfp-mreB cells induced for 2 hr with 0.03% xylose. These cells were adhered to polylysine-coated cover slips. The cover slips were then adhered to microscope slides with two parallel strips of double-sided tape (3M), leaving a central channel. An excess of medium containing 0 or 10 μg/ml A22 was pipetted onto one opening of this channel and wicked through by placing a tissue (VWR) on the other end. Images were collected every 30 s.

Caulobacter crescentus = assay: Caulobacter growth (optical density, doubling time); assay type: cell-based; conditions: for Doubling in A22 in WT Genetic Background / Doubling Time in A22 / Doubling in A22 when Replaced by WT mreB: cell mass over 6 hr, A660
Experimental: Similar volumes of solvent (methanol) alone had no effect on growth. […] This rapid effect on cell growth could be due to a disruption in cell wall deposition or could reflect a secondary response to some other cellular perturbation.
MreB Is the Direct Target of A22. To identify the cellular target(s) of A22, we carried out a screen for A22-resistant mutants by growing large numbers of Caulobacter on plates containing 10 μg/ml A22. We independently isolated 20 mutants that stably and repeatedly formed colonies on plates containing 10 μg/ml A22 and grew in liquid culture containing 10 μg/ml A22. Since MreB was proposed as a possible target of A22, we PCR-amplified and sequenced the mreB gene in the 20 A22-resistant strains and a control wild-type strain. Each of the 20 A22-resistant strains contained a single missense point mutation in its mreB gene, whereas the wild-type A22-sensitive strain had no mreB point mutations (Table 2). Though isolated independently, the 20 strains had only 7 different point mutations: one specific point mutation was found in 10 of the strains, another specific point mutation was found in 5 of the strains, and 5 additional point mutations were found in 1 strain each. Since all 7 of these mutations affected amino acids that are conserved between Caulobacter MreB and Thermotoga maritima MreB, they could be mapped onto the solved three-dimensional structure of T. maritima MreB. […] All of the resistant strains grow at a similar rate in rich PYE medium (w115 min/doubling), which is slower than wild-type cells without drug (87 min/doubling), but they are largely unaffected by the presence of A22 (w115 min/doubling) (Table 2).
Bacterial Strains and Growth Conditions. Caulobacter crescentus strains CB15N and derivatives were grown in PYE or M2G medium or agar plates supplemented with the appropriate combinations of antibiotics, glucose, xylose, A22, and the A22 diluent, methanol. The FROS strains labeled at both the origin and CC2943, CC3300, CC3656, and CC0091, or singly labeled at CC0786, and CC3192 were generated and characterized in a previous study, where they were referred to as MPO40, MPO53, MPO7, MPO133, MP156, and MP82, respectively. Growth and analysis conditions for the mreB depletion, holB:gfp, and FROS strains have been previously described. The methods for ΦCr30-mediated generalized phage transduction and swarmer cell isolation by Percoll density gradient centrifugation have also been described. Washes were performed by micro centrifugation at 8000 g. Twenty independent A22-resistant Caulobacter mutants were isolated by growing 20 single CB15N colonies overnight and plating 10^9 cells per culture on PYE plates containing 10 μg/ml A22. One A22-resistant colony from each plate was isolated, retested, and characterized. To sequence the mreB gene from these strains, mreB was PCR-amplified and the resulting band was gel-purified (Qiagen) and sequenced. Overlay PCR mutagenesis was used to introduce the […] point mutation (A509G) into the previously described PxyI:gfp:mreB construct.

T1 sequence (A0A0H3C7V4 whole entry T167A): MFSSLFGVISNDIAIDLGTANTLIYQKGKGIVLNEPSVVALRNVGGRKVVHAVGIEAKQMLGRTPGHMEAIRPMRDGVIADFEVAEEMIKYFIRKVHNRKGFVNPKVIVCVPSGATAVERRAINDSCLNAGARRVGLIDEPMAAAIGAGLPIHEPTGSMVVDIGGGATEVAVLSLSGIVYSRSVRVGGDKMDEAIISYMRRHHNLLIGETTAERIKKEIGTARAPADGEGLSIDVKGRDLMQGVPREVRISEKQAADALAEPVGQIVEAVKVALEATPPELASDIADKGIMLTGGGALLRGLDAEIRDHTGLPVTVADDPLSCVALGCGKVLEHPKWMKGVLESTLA

Q: `N=C(N)SCc1ccc(Cl)c(Cl)c1` [Compound 1, S-(3,4-dichlorobenzyl)isothiourea] was tested. Which “Localization of mutated (T158A) GFP-MreB” value (GFP-MreB) did it give?
A: Its value is “completely unaffected”.

Q: And the “Effect on growth of Caulobacter cultures” value (Caulobacter crescentus; 0.1-100 μg/ml, up to 6 hr)?
A: The value was “slowed growth in a dose-dependent fashion”.

Q: What about the “Doubling in A22 in WT Genetic Background” value (Caulobacter crescentus; mreB allele: A325P) of the same compound?
A: The value was 115′.

Q: And the “Doubling in A22 in WT Genetic Background” value (Caulobacter crescentus; mreB allele: D16G)?
A: The value was 112′.

Q: What about the “Doubling in A22 in WT Genetic Background” value (Caulobacter crescentus; mreB allele: D192G) of the same compound?
A: Its value is 116′.

Q: And the “Doubling in A22 in WT Genetic Background” value (Caulobacter crescentus; mreB allele: L23R)?
A: The value was 120′.

Q: And the “Doubling in A22 in WT Genetic Background” value (Caulobacter crescentus; mreB allele: None (wt))?
A: The value was 156′.

Q: What about the “Doubling in A22 in WT Genetic Background” value (Caulobacter crescentus; mreB allele: P112S) of the same compound?
A: The value was 119′.

Q: What about the “Doubling in A22 in WT Genetic Background” value (Caulobacter crescentus; mreB allele: T167A) of the same compound?
A: Its value is 105′.

Q: And the “Doubling in A22 in WT Genetic Background” value (Caulobacter crescentus; mreB allele: V324A)?
A: Its value is 115′.

Q: What about the “Doubling Time in A22” value (Caulobacter crescentus; mreB mutation: A325P) of the same compound?
A: The value was 116′.

Q: And the “Doubling Time in A22” value (Caulobacter crescentus; mreB mutation: D16G)?
A: The value was 115′.

Q: What about the “Doubling Time in A22” value (Caulobacter crescentus; mreB mutation: D192G) of the same compound?
A: Its value is 118′.

Q: What about the “Doubling Time in A22” value (Caulobacter crescentus; mreB mutation: L23R) of the same compound?
A: The value was 121′.

Q: What about the “Doubling Time in A22” value (Caulobacter crescentus; mreB mutation: None (wt)) of the same compound?
A: Its value is 148′.

Q: What about the “Doubling Time in A22” value (Caulobacter crescentus; mreB mutation: P112S) of the same compound?
A: The value was 118′.

Q: What about the “Doubling Time in A22” value (Caulobacter crescentus; mreB mutation: T167A) of the same compound?
A: The value was 110′.

Q: What about the “Doubling Time in A22” value (Caulobacter crescentus; mreB mutation: V324A) of the same compound?
A: Its value is 113′.

Q: And the “Time after A22 treatment at which a decline in growth rate was observed” value (Caulobacter crescentus; rich PYE medium)?
A: Its value is 30 min.

Q: And the “Doubling in A22 when Replaced by WT mreB” value (Caulobacter crescentus; strain: A325P)?
A: Its value is 144′.

Q: What about the “Doubling in A22 when Replaced by WT mreB” value (Caulobacter crescentus; strain: D16G) of the same compound?
A: Its value is 150′.

Q: And the “Doubling in A22 when Replaced by WT mreB” value (Caulobacter crescentus; strain: None (wt))?
A: Its value is 145′.

Q: And the “Doubling in A22 when Replaced by WT mreB” value (Caulobacter crescentus; strain: P112S)?
A: The value was 146′.

Q: And the “Doubling in A22 when Replaced by WT mreB” value (Caulobacter crescentus; strain: T167A)?
A: Its value is 148′.

Q: What about the “Doubling in A22 when Replaced by WT mreB” value (Caulobacter crescentus; strain: V324A) of the same compound?
A: The value was 142′.
